Assay results taken from US12448369B2 (Edgewise Therapeutics, Inc., priority 2023, dated 2025).

Tests used:
[1] = test system: Porcine atria myofibrils (atrial myosin ATPase); assay: Myofibril ATPase assay, porcine atria myofibrils; type: biochemical; settings: porcine atria myofibrils
Summary of the method: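 Porcine atrial myofibrils were tested in a PK/LDH-coupled system where ADP from myosin ATPase drives NADH oxidation. Absorbance at 340 nm was read every 1.5-2 min for 75 min and slopes were normalized to vehicle wells. A 4-parameter logistic fit gave Y75 (25% inhibition) or Y125 (activation) concentrations.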

[2] = test system: Rabbit Psoas myofibrils (skeletal myosin ATPase); assay: Myofibril ATPase assay, rabbit psoas (skeletal) myofibrils; type: biochemical; settings: rabbit psoas myofibrils
Summary of the method: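 ATPase activity of Triton-washed myofibrils was measured by PK/LDH coupling, following NADH loss at 340 nm every 1.5–2 min for 75 min in PIPES/Ca/EGTA buffer at pH 7.0. Slopes, normalized to vehicle (100%), were fitted to a 4-parameter logistic model. Values are Y75 (25% inhibition) or Y125 (activators).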

[3] = target: T1, Porcine ventricle myofibrils (ventricular myosin ATPase) (Sus scrofa, UniProt P79293); assay: Myofibril ATPase assay, porcine ventricle myofibrils; type: biochemical, porcine (Yucatan minipigs); settings: porcine ventricle myofibrils
T1 construct: Myofibrils from porcine cardiac muscle was isolated from the left ventricle of Yucatan minipigs; tissue Exemplar Genetics; host or cells: left ventricle of Yucatan minipigs, myofibrils prepared in house
Summary of the method: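 Myofibrils isolated from Yucatan minipig left ventricle; coupled PK/LDH NADH assay, pCa buffer pH 7.0, kinetic A340 reads over 75 min. Vehicle-normalized slopes fit 4PL; Y75/Y125 derived.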

[4] = Y75 value (75% activity relative to no compound)

T1 sequence (P79293 whole entry): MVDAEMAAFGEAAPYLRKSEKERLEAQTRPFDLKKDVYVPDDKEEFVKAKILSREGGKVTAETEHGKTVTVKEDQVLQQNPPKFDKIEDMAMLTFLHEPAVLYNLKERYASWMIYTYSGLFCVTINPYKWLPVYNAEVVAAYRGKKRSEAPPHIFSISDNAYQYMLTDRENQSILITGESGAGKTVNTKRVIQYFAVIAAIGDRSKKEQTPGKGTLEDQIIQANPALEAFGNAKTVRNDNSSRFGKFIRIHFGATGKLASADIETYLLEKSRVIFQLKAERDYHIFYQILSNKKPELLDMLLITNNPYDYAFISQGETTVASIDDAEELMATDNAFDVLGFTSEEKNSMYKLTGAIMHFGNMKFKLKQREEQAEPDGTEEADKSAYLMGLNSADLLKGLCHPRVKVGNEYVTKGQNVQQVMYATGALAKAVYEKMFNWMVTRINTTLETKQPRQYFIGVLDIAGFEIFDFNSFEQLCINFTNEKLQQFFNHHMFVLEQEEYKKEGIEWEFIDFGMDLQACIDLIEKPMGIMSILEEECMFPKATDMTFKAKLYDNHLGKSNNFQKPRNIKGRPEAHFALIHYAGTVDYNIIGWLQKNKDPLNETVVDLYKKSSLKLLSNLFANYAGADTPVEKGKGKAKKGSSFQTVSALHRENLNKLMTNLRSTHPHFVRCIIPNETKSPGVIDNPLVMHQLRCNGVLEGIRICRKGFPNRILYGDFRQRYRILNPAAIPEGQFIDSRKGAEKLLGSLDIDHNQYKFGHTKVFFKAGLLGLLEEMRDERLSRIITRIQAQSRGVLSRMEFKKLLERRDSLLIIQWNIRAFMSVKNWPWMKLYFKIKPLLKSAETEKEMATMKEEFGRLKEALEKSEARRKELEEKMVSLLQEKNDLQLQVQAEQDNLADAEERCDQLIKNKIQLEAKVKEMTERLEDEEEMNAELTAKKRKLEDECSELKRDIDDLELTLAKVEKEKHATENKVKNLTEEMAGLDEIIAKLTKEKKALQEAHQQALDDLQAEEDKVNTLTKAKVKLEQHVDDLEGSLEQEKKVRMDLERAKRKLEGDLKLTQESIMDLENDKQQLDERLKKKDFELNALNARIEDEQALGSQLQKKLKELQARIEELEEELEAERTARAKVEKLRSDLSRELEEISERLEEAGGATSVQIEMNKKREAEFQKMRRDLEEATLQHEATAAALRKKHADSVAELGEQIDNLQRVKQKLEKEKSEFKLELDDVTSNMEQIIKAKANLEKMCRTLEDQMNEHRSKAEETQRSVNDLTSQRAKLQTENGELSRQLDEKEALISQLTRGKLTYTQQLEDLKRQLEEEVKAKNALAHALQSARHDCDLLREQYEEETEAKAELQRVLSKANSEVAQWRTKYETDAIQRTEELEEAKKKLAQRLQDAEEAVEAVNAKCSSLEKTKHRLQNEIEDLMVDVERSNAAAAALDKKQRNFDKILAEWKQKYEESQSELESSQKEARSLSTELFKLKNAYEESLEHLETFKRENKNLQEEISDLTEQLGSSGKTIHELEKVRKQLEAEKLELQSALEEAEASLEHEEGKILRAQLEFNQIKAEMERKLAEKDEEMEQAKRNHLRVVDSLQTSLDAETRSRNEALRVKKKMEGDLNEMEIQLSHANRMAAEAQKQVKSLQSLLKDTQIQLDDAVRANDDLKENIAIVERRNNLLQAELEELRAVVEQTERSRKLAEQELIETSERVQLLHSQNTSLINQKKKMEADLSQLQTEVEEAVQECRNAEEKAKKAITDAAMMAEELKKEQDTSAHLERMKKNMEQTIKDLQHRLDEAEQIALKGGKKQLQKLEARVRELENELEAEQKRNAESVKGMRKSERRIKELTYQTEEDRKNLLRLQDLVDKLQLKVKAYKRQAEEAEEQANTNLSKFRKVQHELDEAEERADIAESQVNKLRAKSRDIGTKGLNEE

| SMILES | Atrial EC25 [1, 4] [µM] | Skeletal EC25 ([2]; Y75 value) [µM] | Ventricular EC25 ([3]; Y75 value) [µM] | Atrial EC25 ([1]; Y75 value (no ‡ mark)) [µM] | Skeletal EC25 ([2]; Y75 value (no ‡ mark)) [µM] | Ventricular EC25 ([3]; Y75 value (no ‡ mark)) [µM] | Skeletal EC25 ([2]; ‡ Y125 value, not a Y75 value (125% activity relative to no compound)) |
| --- | --- | --- | --- | --- | --- | --- | --- |
| Cc1c(CC(=O)N[C@@H](C)c2ccc(C#N)cc2F)c(=O)[nH]c2ccnc(C#N)c12 (single isomer, unassigned) [compound 283] | 0.04 | 0.01 | 0.10 |  |  |  |  |
| C[C@H](NC(=O)Cc1c(C2CC2)c2c(F)c(F)ccc2[nH]c1=O)c1ccc(C#N)nn1 (single isomer, unassigned) [compound 2066] |  |  |  | 1.06 | 0.15 | 7.88 |  |
| Cc1c(CC(=O)N[C@@H](C)c2ccc(F)cc2F)c(=O)[nH]c2ccnc(N)c12 [compound 352] | 2.64 | 0.18 | 31.62 |  |  |  |  |
| Cc1ccc([C@H](CO)NC(=O)Cc2c(C)c3c(C)nccc3[nH]c2=O)cc1 (single isomer, unassigned) [compound 336] | 69.32 | 100.00 | 100.00 |  |  |  |  |
| C[C@@H](NC(=O)C(F)(F)c1cc2c(F)c(F)ccc2[nH]c1=O)c1cccc(C#N)n1 (single isomer, unassigned) [compound 2571] |  |  |  | 40.54 | 100.00 | 8.06 |  |
| Cc1c(CC(=O)N[C@@H]2COc3cc(F)cc(F)c32)c(=O)[nH]c2ccnc(C#N)c12 (single isomer, unassigned) [compound 273] | 2.50 | 0.97 | 4.08 |  |  |  |  |
| Cc1nccc2[nH]c(=O)c(CC(=O)N[C@H](C)c3cnc(C#N)cn3)c(C)c12 [compound 486] | 1.49 | 0.20 | 1.47 |  |  |  |  |
| Cc1c(C2(C(=O)N[C@H](C)c3ncc(C#N)cn3)CC2)c(=O)[nH]c2ccc(F)c(C#N)c12 (single isomer, unassigned) [compound 2531] |  |  |  | 1.29 | 2.08 | 15.11 |  |
| Cc1c(C2(C(=O)N[C@H](C)c3ncc(C#N)cn3)CC2)c(=O)[nH]c2ccc(F)cc12 (single isomer, unassigned) [compound 2590] |  |  |  | 0.43 | 1.30 | 3.41 |  |
| C[C@@H](NC(=O)Cc1c(C2CC2)c2cc(F)ccc2[nH]c1=O)c1ncc(C#N)cn1 (single isomer, unassigned) [compound 2063] |  |  |  | 0.21 | 0.50 | 100.00 |  |
| Cc1c(C(F)(F)C(=O)N[C@@H](C)c2ncc(C#N)cc2F)c(=O)[nH]c2cccc(C#N)c12 (single isomer, unassigned) [compound 2502] |  |  |  | 0.09 | 0.03 | 0.20 |  |
| Cc1c(F)ccc2[nH]c(=O)c(CC(=O)N[C@@H](C)c3ncc(F)cc3F)c(C#N)c12 [compound 1148] |  |  |  | 0.06 | 0.05 | 0.09 |  |
| Cc1c(CC(=O)N[C@@H](C)c2ccc(F)cc2F)c(=O)[nH]c2ccnc(N3CCOCC3)c12 [compound 345] | 10.74 | 1.83 | 51.73 |  |  |  |  |
| C[C@@H](NC(=O)Cc1c(O)c2cc(F)c(F)cc2[nH]c1=O)c1ccc(C#N)cc1F [compound 1086] |  |  |  | 1.94 | 100.00 | 100.00 |  |
| C[C@@H](NC(=O)C(F)(F)c1cc2c(F)c(F)ccc2[nH]c1=O)c1nccc(C#N)n1 (single isomer, unassigned) [compound 2561] |  |  |  | 0.23 | 0.25 | 0.79 |  |
| Cc1c(CC(=O)N[C@@H](C)c2cnc(C#N)nc2)c(=O)[nH]c2ccc(F)cc12 [compound 1101] |  |  |  | 0.17 | 0.06 | 0.31 |  |
| Cc1c(CC(=O)N[C@@H](C)c2ccc(C#N)cc2F)c(=O)[nH]c2ccc(F)c(F)c12 [compound 66] |  |  |  | 0.05 | 0.01 | 0.06 |  |
| C[C@@H](NC(=O)C1(c2cc3cc(F)ccc3[nH]c2=O)CC1)c1cccc(C#N)n1 (single isomer, unassigned) [compound 2534] |  |  |  | 15.93 |  | 100.00 | 37.90‡ μM |
| Cc1c(C(F)(F)C(=O)N[C@@H](C)c2ncc(C#N)cn2)c(=O)[nH]c2ccc(F)cc12 (single isomer, unassigned) [compound 2595] |  |  |  | 0.36 | 0.17 | 0.45 |  |

| SMILES | Atrial EC25 [1, 4] [µM] | Skeletal EC25 ([2]; Y75 value) [µM] | Ventricular EC25 ([3]; Y75 value) [µM] | Atrial EC25 ([1]; Y75 value (no ‡ mark)) [µM] | Skeletal EC25 ([2]; Y75 value (no ‡ mark)) [µM] | Ventricular EC25 ([3]; Y75 value (no ‡ mark)) [µM] | Skeletal EC25 ([2]; ‡ Y125 value, not a Y75 value (125% activity relative to no compound)) |
| --- | --- | --- | --- | --- | --- | --- | --- |
| C[C@H](NC(=O)Cc1cc2nc(O)ccc2[nH]c1=O)c1ccc(F)cc1F [compound 300] | 100.00 | 100.00 | 100.00 |  |  |  |  |
| Cc1nccc2[nH]c(=O)c(CC(=O)NC[C@@H](CO)c3ccccc3)c(C)c12 [compound 494] | 100.00 | 100.00 | 100.00 |  |  |  |  |
| Cc1c(CC(=O)N[C@@H](CO)c2ncc(C#N)cc2F)c(=O)[nH]c2ccnc(C#N)c12 (single isomer, unassigned) [compound 246] | 0.13 | 0.03 | 0.15 |  |  |  |  |
| Cc1c(C(F)(F)C(=O)N[C@H](CO)c2ncc(C#N)cc2F)c(=O)[nH]c2ccnc(C#N)c12 (single isomer, unassigned) [compound 3502] | 0.15 | 0.08 | 0.31 |  |  |  |  |
| Cc1nccc2[nH]c(=O)c(C3(C(=O)N[C@H](C)c4ccc(C#N)cc4F)CC3)c(C)c12 (single isomer, unassigned) [compound 3516] | 0.51 | 0.24 | 1.49 |  |  |  |  |
| Cc1c(CC(=O)N[C@H](CO)c2ncc(C#N)cc2F)c(=O)[nH]c2cnnc(C#N)c12 [compound 163] | 0.94 | 12.34 | 100.00 |  |  |  |  |
| CCc1c(CC(=O)N[C@@H](C)c2ncc(C#N)cn2)c(=O)[nH]c2ccc(F)c(C)c12 (single isomer, unassigned) [compound 2002] |  |  |  | 0.29 | 0.11 | 0.21 |  |
| Cc1c(CC(=O)N[C@H]2COCc3cc(C#N)cnc32)c(=O)[nH]c2ccc(F)cc12 [compound 1057] |  |  |  | 100.00 | 21 | 100.00 |  |
| Cc1c(C(F)(F)C(=O)N[C@@H](C)c2ncc(C#N)cn2)c(=O)[nH]c2cccc(C#N)c12 (single isomer, unassigned) [compound 4839] |  |  |  | 1.67 | 0.13 | 1.85 |  |
| Cc1nccc2[nH]c(=O)c(CC(=O)N[C@@H](CCO)c3ccc(F)cc3F)c(C)c12 (single isomer, unassigned) [compound 342] | 3.65 | 11.14 | 52.00 |  |  |  |  |
| Cc1nc([C@@H](C)NC(=O)Cc2c(C)c3c(C)nccc3[nH]c2=O)ncc1C#N [compound 478] | 5.84 | 65.26 | 33.12 |  |  |  |  |
| Cc1c([C@@H](Cc2ccccc2)C(=O)N[C@@H](C)c2ccc(F)cc2F)c(=O)[nH]c2ccnc(F)c12 (single isomer, unassigned) [compound 358] | 23.89 | 100.00 | 54.71 |  |  |  |  |
| Cc1c(CC(=O)N[C@H]2CCc3cc(C#N)cnc32)c(=O)[nH]c2ccc(F)cc12 [compound 1093] |  |  |  | 100.00 | 100.00 | 100.00 |  |
| Cc1c(F)ccc2[nH]c(=O)c(CC(=O)N[C@H](C)c3ncc(C#N)cc3F)c(C#N)c12 [compound 1149] |  |  |  | 1.90 | 0.47 | 0.15 |  |
| Cc1nccc2[nH]c(=O)c(C(F)(F)C(=O)N[C@@H](C)c3ccc(F)cc3F)c(C)c12 [compound 405] | 0.15 | 0.04 | 1.12 |  |  |  |  |
| C[C@H](NC(=O)Cc1c(C#N)c2cc(F)c(F)cc2[nH]c1=O)c1ccc(C#N)cn1 (single isomer, unassigned) [compound 2048] |  |  |  | 0.90 | 1.25 | 10.98 |  |
| Cc1c(CC(=O)N[C@H](C)c2cnc(C#N)cn2)c(=O)[nH]c2ccc(F)cc12 [compound 1108] |  |  |  | 6.47 | 0.37 | 1.44 |  |
| C[C@H](NC(=O)Cc1cc2nc(C(F)(F)F)ccc2[nH]c1=O)c1ccc(F)cc1F [compound 397] | 100.00 | 1.87 | 32.40 |  |  |  |  |
| Cc1c(CC(=O)N[C@H](C)c2ncc(C#N)cc2F)c(=O)[nH]c2ccc(OC(F)(F)F)nc12 [compound 455] | 7.11 | 5.74 | 100.00 |  |  |  |  |
